Laboratory results as given in patent US20230050653A1, “ROCK INHIBITOR AND PREPARATION METHOD THEREFOR AND USE THEREOF” (WUHAN LL SCIENCE AND TECHNOLOGY DEVELOPMENT CO., LTD., priority 2019, published 2023).

What was measured:
ROCK1 kinase = biological target: T1, ROCK1 kinase (Homo sapiens, UniProt Q13464); assay: In vitro evaluation of ROCK1 kinase selectivity (HTRF KinEASE-STK time-resolved fluorometric assay); type: biochemical
T1 construct: purchased Invitrogen
Method: ROCK1 activity was detected using a 96-well (Cisbio) time-resolved fluorometric assay. The assay for ROCK1 was performed in the following assay buffer: 5 mM MgCl2 (Sigma), 1 mM DTT (Sigma) and 1× kinase buffer. The kinase buffer was used for dilution. 7.5 μL of ROCK1 kinase (Invitrogen) was added to a 96-well microplate to reach a final concentration of 0.4 ng/μL, and then 0.25 μL of test compound (DMSO content: 1%) was added. The mixture was incubated at room temperature for 0.5 h. To start the reaction, the kinase buffer was also used to mix ATP (Aladdin) and the substrate STK-substrate 2-biotin. 7.5 μL of the mixed solution was added to the microplate to reach final concentrations of 3.53 μM and 1 μM. The resulting mixture was incubated for 2 h at room temperature. […] was mixed with STK antibody-Cryptate, and then an appropriate volume of the mixture was mixed with an equal volume of streptavidin-XL665. 10 μL of the resulting mixture was added to stop the reaction. After further incubation for about 1 h, the microplate was read on a Molecular Devices SpectraMax i3x multifunctional microplate reader. The kinase buffer, the STK-substrate 2-biotin, the detection buffer, the STK antibody-Cryptate, and the streptavidin-XL665 were all from HTRF KinEASE-STK kit (Cisbio, 1000 tests, 61[…]).

ROCK2 kinase = biological target: T2, ROCK2 kinase (Homo sapiens, UniProt O75116); assay: In vitro evaluation of ROCK2 kinase activity (HTRF KinEASE-STK time-resolved fluorometric assay); type: biochemical
T2 construct: purchased Invitrogen PV3759
T2 sequence (O75116 whole entry): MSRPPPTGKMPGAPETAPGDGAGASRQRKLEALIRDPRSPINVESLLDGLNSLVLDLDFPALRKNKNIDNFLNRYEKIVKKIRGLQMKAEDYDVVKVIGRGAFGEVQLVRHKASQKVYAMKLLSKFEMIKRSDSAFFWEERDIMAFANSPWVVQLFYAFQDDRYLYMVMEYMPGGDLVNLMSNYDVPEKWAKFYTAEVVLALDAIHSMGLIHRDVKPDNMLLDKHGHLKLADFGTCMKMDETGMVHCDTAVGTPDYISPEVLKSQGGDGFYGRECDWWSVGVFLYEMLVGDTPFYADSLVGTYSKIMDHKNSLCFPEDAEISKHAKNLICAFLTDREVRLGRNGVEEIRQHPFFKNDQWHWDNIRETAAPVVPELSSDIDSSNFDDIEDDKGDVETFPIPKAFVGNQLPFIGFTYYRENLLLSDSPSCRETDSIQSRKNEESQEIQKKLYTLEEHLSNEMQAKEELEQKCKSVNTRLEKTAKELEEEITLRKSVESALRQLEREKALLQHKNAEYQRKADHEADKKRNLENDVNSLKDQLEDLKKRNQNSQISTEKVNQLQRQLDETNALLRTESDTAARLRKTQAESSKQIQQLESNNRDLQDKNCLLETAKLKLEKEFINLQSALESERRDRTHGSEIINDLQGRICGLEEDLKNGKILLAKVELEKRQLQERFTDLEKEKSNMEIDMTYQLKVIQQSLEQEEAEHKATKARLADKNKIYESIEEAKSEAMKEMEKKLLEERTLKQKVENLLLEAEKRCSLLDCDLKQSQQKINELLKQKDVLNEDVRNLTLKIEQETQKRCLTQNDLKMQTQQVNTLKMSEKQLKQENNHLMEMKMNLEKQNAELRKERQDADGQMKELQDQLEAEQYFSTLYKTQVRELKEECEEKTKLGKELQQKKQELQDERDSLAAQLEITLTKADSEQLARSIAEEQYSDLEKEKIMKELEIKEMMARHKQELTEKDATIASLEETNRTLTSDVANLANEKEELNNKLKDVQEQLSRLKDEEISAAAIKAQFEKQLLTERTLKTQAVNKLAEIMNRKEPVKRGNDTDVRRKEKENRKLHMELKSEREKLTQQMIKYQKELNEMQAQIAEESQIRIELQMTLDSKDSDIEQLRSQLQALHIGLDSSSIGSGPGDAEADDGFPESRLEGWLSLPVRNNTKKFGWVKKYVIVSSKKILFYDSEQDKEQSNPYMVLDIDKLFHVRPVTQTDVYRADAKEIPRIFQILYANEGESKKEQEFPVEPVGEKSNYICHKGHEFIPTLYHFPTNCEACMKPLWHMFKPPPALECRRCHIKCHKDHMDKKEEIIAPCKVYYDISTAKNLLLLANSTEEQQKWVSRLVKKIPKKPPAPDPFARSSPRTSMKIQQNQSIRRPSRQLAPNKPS
Method: ROCK2 activity screening. ROCK2 activity was detected using a 96-well (Cisbio) time-resolved fluorometric assay. The assay for ROCK2 was performed in the following assay buffer: 5 mM MgCl2 (Sigma), 1 mM DTT (Sigma) and 1× kinase buffer. The kinase buffer was used for dilution. 7.5 μL of ROCK2 kinase (Invitrogen, PV3759) was added to a 96-well microplate to reach a final concentration of 0.4 ng/μL, and then 0.25 μL of test compound (DMSO content: 1% (volume fraction)) was added. The mixture was incubated at room temperature for 0.5 h. To start the reaction, the kinase buffer was used to mix ATP (Aladdin) and the substrate STK-substrate 2-biotin. 7.5 μL of the mixed solution was added to the microplate to reach final concentrations of 6.739 μM and 1 μM. The resulting mixture was incubated for 2 h at room temperature. 5 mL of detection buffer was mixed with STK antibody-Cryptate, and then an appropriate volume of the mixture was mixed with an equal volume of streptavidin-XL665. 10 μL of the resulting mixture was added to the microplate to stop the reaction. After further incubation for about 1 h, the microplate was read on a Molecular Devices SpectraMax i3x multifunctional microplate reader. The kinase buffer, the STK-substrate 2-biotin, the detection buffer, the STK antibody-Cryptate, and the streptavidin-XL665 were all from HTRF KinEASE-STK kit (Cisbio, 1000 tests, 61[…]).

T1 sequence (Q13464 whole entry): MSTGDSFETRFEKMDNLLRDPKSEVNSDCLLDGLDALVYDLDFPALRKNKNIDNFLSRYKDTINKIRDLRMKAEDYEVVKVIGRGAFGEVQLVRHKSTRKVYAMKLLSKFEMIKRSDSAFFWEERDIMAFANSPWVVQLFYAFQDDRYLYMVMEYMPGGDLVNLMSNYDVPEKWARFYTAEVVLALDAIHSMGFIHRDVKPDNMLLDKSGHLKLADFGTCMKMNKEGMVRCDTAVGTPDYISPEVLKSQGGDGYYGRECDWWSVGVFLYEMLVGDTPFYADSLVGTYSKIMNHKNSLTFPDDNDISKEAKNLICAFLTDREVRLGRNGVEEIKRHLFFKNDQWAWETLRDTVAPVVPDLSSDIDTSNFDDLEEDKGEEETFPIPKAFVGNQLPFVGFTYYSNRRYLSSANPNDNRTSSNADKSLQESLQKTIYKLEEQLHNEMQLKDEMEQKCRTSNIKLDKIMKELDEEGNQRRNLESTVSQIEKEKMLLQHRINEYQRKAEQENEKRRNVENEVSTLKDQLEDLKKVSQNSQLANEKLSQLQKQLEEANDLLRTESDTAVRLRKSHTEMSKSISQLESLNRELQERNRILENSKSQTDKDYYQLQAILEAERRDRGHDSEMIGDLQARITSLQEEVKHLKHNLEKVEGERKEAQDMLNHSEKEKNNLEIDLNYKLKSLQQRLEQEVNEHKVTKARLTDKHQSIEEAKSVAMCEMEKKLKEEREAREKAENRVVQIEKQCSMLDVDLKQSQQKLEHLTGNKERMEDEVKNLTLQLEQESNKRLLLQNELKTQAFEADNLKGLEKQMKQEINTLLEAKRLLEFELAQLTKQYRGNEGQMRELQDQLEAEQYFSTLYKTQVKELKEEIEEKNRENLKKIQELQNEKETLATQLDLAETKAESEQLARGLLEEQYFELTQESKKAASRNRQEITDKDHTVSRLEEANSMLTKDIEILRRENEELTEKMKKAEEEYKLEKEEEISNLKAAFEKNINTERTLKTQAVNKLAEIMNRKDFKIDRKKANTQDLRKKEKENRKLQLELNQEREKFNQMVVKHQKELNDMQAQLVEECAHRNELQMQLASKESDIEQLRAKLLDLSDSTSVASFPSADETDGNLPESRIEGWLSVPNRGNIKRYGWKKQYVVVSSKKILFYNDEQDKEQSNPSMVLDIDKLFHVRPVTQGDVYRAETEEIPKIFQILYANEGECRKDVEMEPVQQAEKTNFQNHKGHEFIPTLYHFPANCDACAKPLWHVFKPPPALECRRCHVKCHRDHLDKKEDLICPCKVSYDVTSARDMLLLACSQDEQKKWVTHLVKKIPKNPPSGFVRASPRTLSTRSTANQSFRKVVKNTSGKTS

Row | Structure (SMILES) | IC50 (ROCK1 kinase) | IC50 (ROCK2 kinase)
1 | COc1cc(F)cc(CNC(=O)n2ccc3cc(-c4cn[nH]c4)ccc32)c1 [Compound T210] | 50 to 500 nM | 50 to 500 nM
2 | COc1cc(F)cc(CN(C)C(=O)N2CCc3cc(-c4cn[nH]c4)ccc32)c1 [Compound T206, N-(3-fluoro-5-methoxybenzyl)-N-methyl-5-(1H-pyrazol-4-yl)indoline-1-carboxamide] | 500 to 5000 nM | 50 to 500 nM
3 | COc1cc(F)cc([C@@H](CO)NC(=O)N2CCc3cc(-c4c[nH]nc4C)c(F)cc32)c1 [Compound T381, (S)-6-fluoro-N-(1-(3-fluoro-5-methoxyphenyl)-2-hydroxyethyl)-5-(3-methyl-1H-pyrazol-4-yl)indoline-1-carboxamide] | ≤ 50 nM | ≤ 50 nM
4 | O=C(NC1CCCC1)c1cc(F)cc(C(CO)NC(=O)N2CCc3cc(-c4cn[nH]c4)c(F)cc32)c1 (stereo not shown) [Compound T389, N-(1-(3-(cyclopentylcarbamoyl)-5-fluorophenyl)-2-hydroxyethyl)-6-fluoro-5-(1H-pyrazol-4-yl)indoline-1-carboxamide] | ≤ 50 nM | ≤ 50 nM
5 | COCCOc1cc(F)cc(CNC(=O)N2CCc3cc(-c4cn[nH]c4)ccc32)c1 [Compound T213] | ≤ 50 nM | ≤ 50 nM
6 | CC(C)COc1cc(F)cc([C@@H](CO)NC(=O)N2CCc3cc(-c4cn[nH]c4)c(F)cc32)c1 [Compound T354, (S)-6-fluoro-N-(1-(3-fluoro-3-isobutoxyphenyl)-2-hydroxyethyl)-5-(1H-pyrazol-4-yl)indoline-1-carboxamide] | 50 to 500 nM | 50 to 500 nM
7 | COc1cc(F)cc(CNC(=O)N2CCc3c2ccc(-c2cn[nH]c2)c3F)c1 [Compound T372, 4-fluoro-N-(3-fluoro-5-methoxybenzyl)-5-(1H-pyrazol-4-yl)indoline-1-carboxamide] | ≤ 50 nM | ≤ 50 nM
8 | COc1cc(F)cc(CNC(=O)N2CCc3cc(-c4cn[nH]c4F)ccc32)c1 [Compound T342, 5-(5-fluoro-1H-pyrazol-4-yl)-N-(3-fluoro-5-methoxybenzyl)indoline-1-carboxamide] | ≤ 50 nM | ≤ 50 nM
9 | COc1cc(F)cc(CNC(=O)c2cnn3cc(-c4cn[nH]c4)ccc23)c1 [Compound T239] | ≤ 50 nM | ≤ 50 nM
10 | COc1cc(F)cc(CNC(=O)N2CCc3cc(-c4cn[nH]c4)cnc32)c1 [Compound T218, N-(3-fluoro-5-methoxybenzyl)-5-(1H-pyrazol-4-yl)-2,3-dihydro-1H-pyrrolo(2,3-b)pyridine-1-carboxamide] | 50 to 500 nM | 500 to 5000 nM
11 | CN1CC(COc2cc(F)cc(C(CO)NC(=O)N3CCc4cc(-c5cn[nH]c5)c(F)cc43)c2)C1 (stereo not shown) [Compound T343, 6-fluoro-N-(1-(3-fluoro-5-((1-methylazetidin-3-yl)methoxy)phenyl)-2-hydroxyethyl)-5-(1H-pyrazol-4-yl)indoline-1-carboxamide] | 500 to 5000 nM | 50 to 500 nM
12 | COc1cccc(CCC(=O)N2CCc3cc(-c4c[nH]nc4N)c(F)cc32)c1 [Compound T383] | 500 to 5000 nM | 500 to 5000 nM
13 | O=C(COc1cc(F)cc([C@@H](CO)NC(=O)N2CCc3cc(-c4cn[nH]c4)c(F)cc32)c1)N1CC(F)(F)C1 [Compound T350, (S′)-N-(1-(3-(2-(3,3-difluoroazetidin-1-yl)-2-oxoethoxy)-5-fluorophenyl)-2-hydroxyethyl)-6-fluoro-5-(1H-pyrazol-4-yl)indoline-1-carboxamide] | ≤ 50 nM | ≤ 50 nM
14 | COc1cc(F)cc(CN(Cc2ccccc2)C(=O)N2CCc3cc(-c4cn[nH]c4)ccc32)c1 [Compound T243] | 500 to 5000 nM | 500 to 5000 nM
15 | O=C(NCc1cc(F)cc(OC(F)F)c1)N1CCc2cc(-c3cn[nH]c3)c(F)cc21 [Compound T375, N-(3-(difluoromethoxy)-5-fluorobenzyl)-6-fluoro-5-(1H-pyrazol-4-yl)indoline-1-carboxamide] | 50 to 500 nM | ≤ 50 nM
16 | COc1cc(F)cc(CNC(=O)N2CCc3cc(-c4cn[nH]c4)c(C#N)cc32)c1 [Compound T353, 6-cyano-N-(3-fluoro-5-methoxybenzyl)-5-(1H-pyrazol-4-yl)indoline-1-carboxamide] | 500 to 5000 nM | 50 to 500 nM
17 | COc1cc(F)cc(CNC(=O)N2Cc3ccc(-c4cn[nH]c4)cc3C2)c1 [Compound T209, N-(3-fluoro-5-methoxybenzyl)-5-(1H-pyrazol-4-yl)isoindoline-2-carboxamide] | 50 to 500 nM | 50 to 500 nM

Row | Structure (SMILES) | IC50 (ROCK1 kinase) | IC50 (ROCK2 kinase)
18 | COc1cc(CNC(=O)N2CCc3cc(-c4cn[nH]c4)ccc32)ccn1 [Compound T227] | ≤ 50 nM | ≤ 50 nM
19 | COc1cc(F)cc([C@@H](CO)NC(=O)N2CCc3cc(-c4c[nH]nc4F)c(F)cc32)c1 [Compound T374, (S)-6-fluoro-5-(3-fluoro-1H-pyrazol-4-yl)-N-(1-(3-fluoro-5-methoxyphenyl)-2-hydroxyethyl)indoline-1-carboxamide] | ≤ 50 nM | ≤ 50 nM
20 | O=C(NCc1ccc2[nH]cnc2c1)N1CCc2cc(-c3cn[nH]c3)ccc21 [Compound T247] | 50 to 500 nM | 50 to 500 nM
21 | Cn1cc(CNC(=O)N2CCc3cc(-c4cn[nH]c4)ccc32)cn1 [Compound T241] | 50 to 500 nM | 50 to 500 nM
22 | CN(C)CCC(NC(=O)N1CCc2cc(-c3cn[nH]c3)ccc21)c1ccccc1 (stereo not shown) [Compound T248] | 50 to 500 nM | 50 to 500 nM
23 | CN(C)C[C@H](NC(=O)N1CCc2cc(-c3c[nH]nc3F)c(F)cc21)c1cc(F)cc(F)c1 [Compound T366-R, (R)-N-(1-(3,5-difluorophenyl)-2-(dimethylamino)ethyl)-6-fluoro-5-(3-fluoro-1H-pyrazol-4-yl)indoline-1-carboxamide] | 500 to 5000 nM | 50 to 500 nM
24 | COc1cc(F)cc(CN(CC2COC2)C(=O)N2CCc3cc(-c4cn[nH]c4)ccc32)c1 [Compound T212] | 500 to 5000 nM | 500 to 5000 nM
25 | N#Cc1cc(F)cc(CNC(=O)N2CCc3cc(-c4c[nH]nc4N)c(F)cc32)c1 [Compound T348, 5-(3-amino-1H-pyrazol-4-yl)-N-(3-cyano-5-fluorobenzyl)-6-fluoroindoline-1-carboxamide] | 500 to 5000 nM | 500 to 5000 nM
26 | O=C(NCc1ccn[nH]1)N1CCc2cc(-c3cn[nH]c3)ccc21 [Compound T240] | 500 to 5000 nM | 500 to 5000 nM
27 | O=C(N[C@H](CN1CC(F)(F)C1)c1cc(F)cc(F)c1)N1CCc2cc(-c3c[nH]nc3F)c(F)cc21 [Compound T340] | 50 to 500 nM | ≤ 50 nM
28 | COc1cc(F)cc(CN(C(=O)N2CCc3cc(-c4cn[nH]c4)ccc3C2)C2COC2)c1 [Compound T214] | 50 to 500 nM | 50 to 500 nM
29 | COc1cc(F)cc(CN(C(=O)N2CCc3cc(-c4cn[nH]c4)ccc32)C2CCOCC2)c1 [Compound T215] | 500 to 5000 nM | 500 to 5000 nM
30 | COc1cccc(F)c1C(CO)NC(=O)N1CCc2cc(-c3cn[nH]c3)c(F)cc21 (stereo not shown) [Compound T363, 6-fluoro-N-(1-(2-fluoro-6-methoxyphenyl)-2-hydroxyethyl)-5-(1H-pyrazol-4-yl)indoline-1-carboxamide] | – | 50 to 500 nM
31 | O=C(COc1cc(F)cc([C@@H](CO)NC(=O)N2CCc3cc(-c4cn[nH]c4)c(F)cc32)c1)NC1CC(F)(F)C1 [Compound T369, (S)-N-(1-(3-(2-((3,3-difluorocyclobutyl)amino)-2-oxoethoxy)-5-fluorophenyl)-2-hydroxyethyl)-6-fluoro-5-(1H-pyrazol-4-yl)indoline-1-carboxamide] | ≤ 50 nM | ≤ 50 nM
32 | COc1cc(F)cc([C@@H](CO)NC(=O)N2CCc3cc(-c4c[nH]nc4Cl)c(F)cc32)c1 [Compound T359, (S)-5-(3-chloro-1H-pyrazol-4-yl)-6-fluoro-N-(1-(3-fluoro-5-methoxyphenyl)-2-hydroxyethyl)indoline-1-carboxamide] | 50 to 500 nM | ≤ 50 nM
33 | COc1cc(F)cc(CNC(=O)N2CCCc3nc(-c4cn[nH]c4)sc32)c1 [Compound T229] | ≤ 50 nM | ≤ 50 nM
34 | CN(C)C[C@@H](NC(=O)N1CCc2cc(-c3c[nH]nc3F)c(F)cc21)c1cc(F)cc(F)c1 [Compound T366-S, (S)-N-(1-(3,5-difluorophenyl)-2-(dimethylamino)ethyl)-6-fluoro-5-(3-fluoro-1H-pyrazol-4-yl)indoline-1-carboxamide] | ≤ 50 nM | ≤ 50 nM
